Structures can show the parent of a compound that is named as a salt.
What was measured:
[1] = molecular target: T1, Jak2 (a.a. 828-1132) (Homo sapiens, UniProt O60674); test: In vitro JAK kinase assay (HTRF, phosphorylation of biotinylated peptide), JAK2; format: biochemical; details: 1 mM ATP; Examples 12-91; read-out: JAK2 IC50 (nM) @ 1 mM ATP
T1 construct: Jak2 (a.a. 828-1132); His tag (N); made in house; host or cells: insect cells (baculovirus)
Summary of the method: (§1)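 IC50 from HTRF detection (Eu-Py20 antibody, SA-APC, 40 min) after EDTA quench. Reactions ran 1 h at room temperature with 500 nM biotinylated peptide in Tris pH 7.8 buffer with NaCl, DTT, BSA; ATP 90 μM for JAK1, 30 μM for JAK2 (Km), or 1 mM. Enzymes: His-tagged catalytic domains from insect cells.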

[2] = molecular target: T2, human JAK1 (a.a. 837-1142) (Homo sapiens, UniProt P23458); test: In vitro JAK kinase assay (HTRF, phosphorylation of biotinylated peptide), JAK1; format: biochemical; details: 1 mM ATP; Examples 12-91; read-out: JAK1 IC50 (nM) @ 1 mM ATP
T2 construct: The catalytic domains of human JAK1 (a.a. 837-1142); His tag (N); made in house; host or cells: insect cells (baculovirus)
T2 sequence (P23458 849-1154): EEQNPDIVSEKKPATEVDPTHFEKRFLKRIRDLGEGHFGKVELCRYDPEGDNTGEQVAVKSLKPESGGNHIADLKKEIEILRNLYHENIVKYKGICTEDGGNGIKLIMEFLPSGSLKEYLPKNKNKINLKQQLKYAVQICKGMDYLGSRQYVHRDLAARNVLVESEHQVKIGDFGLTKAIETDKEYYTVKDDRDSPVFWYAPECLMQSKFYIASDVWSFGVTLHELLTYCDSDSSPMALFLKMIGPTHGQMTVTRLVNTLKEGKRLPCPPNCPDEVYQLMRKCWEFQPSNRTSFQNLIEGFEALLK
Summary of the method: as §1

T1 sequence (O60674 828-1132): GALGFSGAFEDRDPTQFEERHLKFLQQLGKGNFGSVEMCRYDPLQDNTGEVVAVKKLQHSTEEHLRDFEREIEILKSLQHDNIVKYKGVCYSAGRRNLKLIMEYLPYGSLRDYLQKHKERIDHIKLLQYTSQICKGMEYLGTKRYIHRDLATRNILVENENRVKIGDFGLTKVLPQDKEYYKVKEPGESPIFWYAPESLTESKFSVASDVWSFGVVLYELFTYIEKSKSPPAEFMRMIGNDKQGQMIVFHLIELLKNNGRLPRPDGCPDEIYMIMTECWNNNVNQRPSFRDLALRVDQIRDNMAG

Row | Structure (SMILES) | IC50 [1] [nM] | IC50 [2] [nM]
1 | N#CCC(CN1CCN(C(=O)c2ccc(O)c(Cl)c2)CC1)n1cc(-c2ncnc3[nH]ccc23)cn1 (centres unmarked) [Example 54, 3-(4-(7H-pyrrolo[2,3-d]pyrimidin-4-yl)-1H-pyrazol-1-yl)-4-(4-(3-chloro-4-hydroxybenzoyl)piperazin-1-yl)butanenitrile trifluoroacetate salt] | 50 to 100 | 10 to 50
2 | COc1c(F)cc(C(=O)N2CCN(CC(CC#N)n3cc(-c4ncnc5[nH]ccc45)cn3)CC2)cc1F (centres unmarked) [Example 55, 3-(4-(7H-pyrrolo[2,3-d]pyrimidin-4-yl)-1H-pyrazol-1-yl)-4-(4-(3,5-difluoro-4-methoxybenzoyl)piperazin-1-yl)butanenitrile] | 50 to 100 | 10 to 50
3 | N#CCC(CN1CCN(C(=O)c2ccc(C(F)(F)F)c(F)c2)CC1)n1cc(-c2ncnc3[nH]ccc23)cn1 (centres unmarked) [Example 56, 3-(4-(7H-pyrrolo[2,3-d]pyrimidin-4-yl)-1H-pyrazol-1-yl)-4-(4-(3-fluoro-4-(trifluoromethyl)benzoyl)piperazin-1-yl)butanenitrile] | > 100 | 10 to 50
4 | N#CCC(CN1CCN(C(=O)c2ccc(F)c(C(F)(F)F)c2)CC1)n1cc(-c2ncnc3[nH]ccc23)cn1 (centres unmarked) [Example 57, 3-(4-(7H-pyrrolo[2,3-d]pyrimidin-4-yl)-1H-pyrazol-1-yl)-4-(4-(4-fluoro-3-(trifluoromethyl)benzoyl)piperazin-1-yl)butanenitrile] | > 100 | 10 to 50
5 | N#CCC(CN1CCN(C(=O)c2ccccn2)CC1)n1cc(-c2ncnc3[nH]ccc23)cn1 (centres unmarked) [Example 58, 3-(4-(7H-pyrrolo[2,3-d]pyrimidin-4-yl)-1H-pyrazol-1-yl)-4-(4-picolinoylpiperazin-1-yl)butanenitrile] | > 100 | 10 to 50
6 | N#CCC(CN1CCN(C(=O)c2ccc(F)cc2C(F)(F)F)CC1)n1cc(-c2ncnc3[nH]ccc23)cn1 (centres unmarked) [Example 59] | > 100 | 10 to 50
7 | N#CCC(CN1CCN(S(=O)(=O)c2ccccc2C#N)CC1)n1cc(-c2ncnc3[nH]ccc23)cn1 (centres unmarked) [Example 60, 2-(4-(2-(4-(7H-pyrrolo[2,3-d]pyrimidin-4-yl)-1H-pyrazol-1-yl)-3-cyanopropyl)piperazin-1-ylsulfonyl)benzonitrile] | < 10 | < 10
8 | N#CCC(CN1CCN(S(=O)(=O)c2cc(F)cc(F)c2)CC1)n1cc(-c2ncnc3[nH]ccc23)cn1 (centres unmarked) [Example 61, 3-(4-(7H-pyrrolo[2,3-d]pyrimidin-4-yl)-1H-pyrazol-1-yl)-4-(4-(3,5-difluorophenylsulfonyl)piperazin-1-yl)butanenitrile trifluoroacetate salt] | < 10 | < 10
9 | N#CCC(CN1CCN(S(=O)(=O)c2cc(F)ccc2F)CC1)n1cc(-c2ncnc3[nH]ccc23)cn1 (centres unmarked) [Example 62, 3-(4-(7H-pyrrolo[2,3-d]pyrimidin-4-yl)-1H-pyrazol-1-yl)-4-(4-(2,5-difluorophenylsulfonyl)piperazin-1-yl)butanenitrile trifluoroacetate salt] | < 10 | < 10
10 | Cc1ccc(S(=O)(=O)N2CCN(CC(CC#N)n3cc(-c4ncnc5[nH]ccc45)cn3)CC2)nc1 (centres unmarked) [Example 63, 3-(4-(7H-pyrrolo[2,3-d]pyrimidin-4-yl)-1H-pyrazol-1-yl)-4-(4-(5-methylpyridin-2-ylsulfonyl)piperazin-1-yl)butanenitrile] | < 10 | < 10
11 | Cc1cccc(S(=O)(=O)N2CCN(CC(CC#N)n3cc(-c4ncnc5[nH]ccc45)cn3)CC2)n1 (centres unmarked) [Example 64, 3-(4-(7H-pyrrolo[2,3-d]pyrimidin-4-yl)-1H-pyrazol-1-yl)-4-(4-(6-methylpyridin-2-ylsulfonyl)piperazin-1-yl)butanenitrile] | < 10 | < 10
12 | N#CCC(CN1CCN(S(=O)(=O)c2cccnc2)CC1)n1cc(-c2ncnc3[nH]ccc23)cn1 (centres unmarked) [Example 65, 3-(4-(7H-pyrrolo[2,3-d]pyrimidin-4-yl)-1H-pyrazol-1-yl)-4-(4-(pyridin-3-ylsulfonyl)piperazin-1-yl)butanenitrile] | 10 to 50 | < 10
13 | N#CCC(CN1CCN(S(=O)(=O)c2ccccc2C(F)(F)F)CC1)n1cc(-c2ncnc3[nH]ccc23)cn1 (centres unmarked) [Example 66, 3-(4-(7H-pyrrolo[2,3-d]pyrimidin-4-yl)-1H-pyrazol-1-yl)-4-(4-(2-(trifluoromethyl)phenylsulfonyl)piperazin-1-yl)butanenitrile] | < 10 | < 10
14 | N#CCC(CN1CCN(S(=O)(=O)c2cccs2)CC1)n1cc(-c2ncnc3[nH]ccc23)cn1 (centres unmarked) [Example 67, 3-(4-(7H-pyrrolo[2,3-d]pyrimidin-4-yl)-1H-pyrazol-1-yl)-4-(4-(thiophen-2-ylsulfonyl)piperazin-1-yl)butanenitrile] | < 10 | < 10
15 | N#CCC(CN1CCN(S(=O)(=O)c2ccc(Cl)s2)CC1)n1cc(-c2ncnc3[nH]ccc23)cn1 (centres unmarked) [Example 68, 3-(4-(7H-pyrrolo[2,3-d]pyrimidin-4-yl)-1H-pyrazol-1-yl)-4-(4-(5-chlorothiophen-2-ylsulfonyl)piperazin-1-yl)butanenitrile] | < 10 | < 10
16 | N#CCC(CN1CCN(C(=O)Nc2c(F)cccc2F)CC1)n1cc(-c2ncnc3[nH]ccc23)cn1 (centres unmarked) [Example 69, 4-(2-(4-(7H-pyrrolo[2,3-d]pyrimidin-4-yl)-1H-pyrazol-1-yl)-3-cyanopropyl)-N-(2,6-difluorophenyl)piperazine-1-carboxamide] | 10 to 50 | < 10
17 | N#CCC(CN1CCN(C(=O)Nc2c(Cl)cccc2Cl)CC1)n1cc(-c2ncnc3[nH]ccc23)cn1 (centres unmarked) [Example 70, 4-(2-(4-(7H-pyrrolo[2,3-d]pyrimidin-4-yl)-1H-pyrazol-1-yl)-3-cyanopropyl)-N-(2,6-dichlorophenyl)piperazine-1-carboxamide] | 50 to 100 | 10 to 50

Now from value to compound:

Row | IC50 [1] [nM] | IC50 [2] [nM] | Structure (SMILES)
18 | 10 to 50 | 10 to 50 | Cc1cccc(Cl)c1NC(=O)N1CCN(CC(CC#N)n2cc(-c3ncnc4[nH]ccc34)cn2)CC1 (centres unmarked) [Example 71, 4-(2-(4-(7H-pyrrolo[2,3-d]pyrimidin-4-yl)-1H-pyrazol-1-yl)-3-cyanopropyl)-N-(2-chloro-6-methylphenyl)piperazine-1-carboxamide]
19 | 50 to 100 | 10 to 50 | N#CCC(CN1CCN(C(=O)Nc2ccc(F)cc2F)CC1)n1cc(-c2ncnc3[nH]ccc23)cn1 (centres unmarked) [Example 72, 4-(2-(4-(7H-pyrrolo[2,3-d]pyrimidin-4-yl)-1H-pyrazol-1-yl)-3-cyanopropyl)-N-(2,4-difluorophenyl)piperazine-1-carboxamide]
20 | > 100 | 10 to 50 | N#CCC(CN1CCN(C(=O)Nc2cccc(C(F)(F)F)c2F)CC1)n1cc(-c2ncnc3[nH]ccc23)cn1 (centres unmarked) [Example 73, 4-(2-(4-(7H-pyrrolo[2,3-d]pyrimidin-4-yl)-1H-pyrazol-1-yl)-3-cyanopropyl)-N-(2-fluoro-3-(trifluoromethyl)phenyl)piperazine-1-carboxamide]
21 | 50 to 100 | 10 to 50 | N#CCC(CN1CCN(C(=O)Nc2ccccc2OC(F)F)CC1)n1cc(-c2ncnc3[nH]ccc23)cn1 (centres unmarked) [Example 74, 4-(2-(4-(7H-pyrrolo[2,3-d]pyrimidin-4-yl)-1H-pyrazol-1-yl)-3-cyanopropyl)-N-(2-(difluoromethoxy)phenyl)piperazine-1-carboxamide]
22 | 50 to 100 | 10 to 50 | N#CCC(CN1CCN(C(=O)Nc2ccccc2OC(F)(F)F)CC1)n1cc(-c2ncnc3[nH]ccc23)cn1 (centres unmarked) [Example 75]
23 | > 100 | 10 to 50 | N#CCC(CN1CCN(C(=O)Nc2ccccc2C(F)(F)F)CC1)n1cc(-c2ncnc3[nH]ccc23)cn1 (centres unmarked) [Example 76, 4-(2-(4-(7H-pyrrolo[2,3-d]pyrimidin-4-yl)-1H-pyrazol-1-yl)-3-cyanopropyl)-N-(2-(trifluoromethyl)phenyl)piperazine-1-carboxamide]
24 | 10 to 50 | < 10 | N#CCC(CN1CCN(C(=O)c2ccc(C(F)(F)F)cc2F)CC1)n1ccc(-c2ncnc3[nH]ccc23)c1 (centres unmarked) [Example 78, 3-(3-(7H-pyrrolo[2,3-d]pyrimidin-4-yl)-1H-pyrrol-1-yl)-4-(4-(2-fluoro-4-(trifluoromethyl)benzoyl)piperazin-1-yl)butanenitrile]
25 | 50 to 100 | < 10 | N#CCC(CN1CCN(C(=O)c2c(F)cc(C#N)cc2F)CC1)n1ccc(-c2ncnc3[nH]ccc23)c1 (centres unmarked) [Example 79, 4-(4-(2-(3-(7H-pyrrolo[2,3-d]pyrimidin-4-yl)-1H-pyrrol-1-yl)-3-cyanopropyl)piperazine-1-carbonyl)-3,5-difluorobenzonitrile trifluoroacetate salt]
26 | 10 to 50 | < 10 | N#CCC(CN1CCN(C(=O)c2ncc(F)cc2F)CC1)n1ccc(-c2ncnc3[nH]ccc23)c1 (centres unmarked) [Example 80, 3-(3-(7H-pyrrolo[2,3-d]pyrimidin-4-yl)-1H-pyrrol-1-yl)-4-(4-(3,5-difluoropicolinoyl)piperazin-1-yl)butanenitrile]
27 | 50 to 100 | < 10 | N#CCC(CN1CCN(C(=O)c2cc(F)cc(F)c2)CC1)n1ccc(-c2ncnc3[nH]ccc23)c1 (centres unmarked) [Example 81, 3-(3-(7H-pyrrolo[2,3-d]pyrimidin-4-yl)-1H-pyrrol-1-yl)-4-(4-(3,5-difluorobenzoyl)piperazin-1-yl)butanenitrile]
28 | 10 to 50 | < 10 | COc1ccc(C(=O)N2CCN(CC(CC#N)n3ccc(-c4ncnc5[nH]ccc45)c3)CC2)cc1F (centres unmarked) [Example 82, 3-(3-(7H-pyrrolo[2,3-d]pyrimidin-4-yl)-1H-pyrrol-1-yl)-4-(4-(3-fluoro-4-methoxybenzoyl)piperazin-1-yl)butanenitrile]

From US9249145B2, “Heterocyclic derivatives of pyrazol-4-yl-pyrrolo[2,3-d]pyrimidines as janus kinase inhibitors” (Incyte Holdings Corporation, priority 2009, dated 2016)
